Measurements published in patent publication US20050043361A1, “MitoNEET polypeptide from mitochondrial membranes, modulators thereof, and methods of using the same” (priority 2002, published 2005).
Entries after “also recorded” stand apart in the source; their conditions may differ. Values belong to the molecule of their own block, whether it stands above or below them.

Experiments:
mitoNEET [1] = molecular target: T1, mitoNEET (Bos taurus, UniProt Q3ZBU2); assay: Photoaffinity crosslinking of 125I-labelled thiazolidinedione probe to bovine brain mitochondrial fractions (B3/B4); type: binding; settings: stored, frozen bovine brain mitochondrial fractions (B3/B4); UV crosslinking
T1 construct: from tissue; host or cells: steer brain, sucrose-density mitochondrial fractions B3/B4
T1 sequence (Q3ZBU2 2-106 limits assumed): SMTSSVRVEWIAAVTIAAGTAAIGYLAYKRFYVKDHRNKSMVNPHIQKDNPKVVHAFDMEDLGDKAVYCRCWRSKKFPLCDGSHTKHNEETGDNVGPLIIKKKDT
Description: Bovine brain mitochondria were harvested from bovine brains. This procedure involved dissection of steer brains freshly obtained from a local packinghouse. The rinsed brains were homogenized in fractionation buffer (250 mM sucrose, 50 mM Tris, pH=8.0, containing 1 μg/ml pepstatin A, 5 μg/ml leupeptin, 10 μg/ml bacitracin, and 0.1 mM PMSF). Following removal of nuclei at 5000 rpm in a Beckman Ti50, the mitochondrial pellet was harvested at 20,000×g (12,500 rpm in a Beckman Ti50 rotor) and further enriched by sucrose density centrifugation. Membrane fractions were collected from top of the 1.18 and 1.20 density bands, re-suspended in 50 mM Tris, and collected by centrifugation. The factions (“B3/B4”) were stored at −80° C. until use.
Crosslinking reactions were carried out in a final volume of 200 μl, containing 100 μl membranes, 50 μl 4% DMSO with or without competing thiazolidinedione (usually 100 μM ([6-(2-{4-[(2,4-dioxo-1,3-thiazolidin-5-yl)methyl]phenoxy}ethyl)pyridin-3-yl]acetic acid), 25 μM final concentration), and 50 μl carrier-free ^125I-4-azido-N-[2-({[6-(2-{4-[(2,4-dioxo-1,3-thiazolidin-5-yl)methyl]phenoxy}ethyl)pyridin-3-yl]acetyl}amino)ethyl]-2-hydroxybenzamide (0.1-0.2 μCi/tube). […]

mitoNEET [2] = molecular target: T2, mitoNEET (Rattus norvegicus, UniProt B0K020); assay: Photoaffinity crosslinking of 125I-labelled thiazolidinedione probe to rat liver mitochondria, with or without competing thiazolidinedione; type: binding
T2 construct: newly prepared crude rat liver mitochondria; from tissue; host or cells: rat liver mitochondria (Sprague-Dawley rats)
T2 sequence (B0K020 1-108): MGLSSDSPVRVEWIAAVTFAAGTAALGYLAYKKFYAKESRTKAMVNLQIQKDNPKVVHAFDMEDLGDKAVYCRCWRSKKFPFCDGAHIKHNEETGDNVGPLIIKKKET
Description: FIG. 1. A representative 10-20% SDS-PAGE gel (Coomassie stain, left panel) and autoradiogram (right panel). Crosslinking with ^125I-PNU-1010174 was conducted in rat liver mitochondria in the absence (−) or presence of 25 μM (+) of ([6-(2-{4-[(2,4-dioxo-1,3-thiazolidin-5-yl)methyl]phenoxy}ethyl)pyridin-3-yl]acetic acid) (TZD) as described in Example 1. Lanes 1 and 2 are from the rinsed mitochondrial pellet, lanes 3 and 4 represent the same incubations solubilized with 1% Triton X 114, and lanes 5 and 6 are the ammonium sulfate (AS) precipitation of the Triton X 114 soluble material.
FIG. 2. The ammonium sulfate pellets of Triton X 114—soluble mitoNEET from 14 separate incubations conducted with or without competitor were resuspended in a total volume of 200 μl and subjected to HPLC as described in Example 4. Representative data for the minus competitor condition is shown. […] The ^125I, profile from the in-line gamma detector is shown in the lower right panel. The left hand panels show the silver-stained gel (upper left) and corresponding autoradiogram (lower left) of the relevant fractions. Data are shown for a representative rat liver mitochondrial preparation. The ^125I-crosslinked mitoNEET seen in fraction 31 was not present in the preparations crosslinked in the combined presence of ([6-(2-{4-[(2,4-dioxo-1,3-thiazolidin-5-yl)methyl]phenoxy}ethyl)pyridin-3-yl]acetic acid) (not shown). […]

fatty acid oxidation = assay: Oxidation of palmitoyl CoA by solubilized mitochondria with and without synthetic mitoNEET (HPLC); type: biochemical; settings: excess synthetic mitoNEET; solubilized mitochondrial preparations; CoASH, NAD, FAD, 1 mM palmitoyl CoA
Description: FIG. 10. Oxidation of palmitoyl CoA was measured by solubilized mitochondria with and without the addition of synthetic mitoNEET. Reactions were conducted in the presence of CoASH, NAD, FAD, and 1 mM palmitoyl CoA. Remaining palmitoyl CoA at various time points after incubation is shown in the absence (closed circles) and presence of excess synthetic mitoNEET peptide 11A (closed squares). There was no loss of substrate in the absence of mitochondrial membranes (open triangles). Substrate and generated CoA products were measured by HPLC.
Full-length mitoNEET synthesized as in Example 6 was extended to contain a N-terminal biotin. […] A number of these proteins have been identified and are know to be involved in fatty acid oxidation. […] Modulation of mitoNEET function would be expected to increase fatty acid oxidation. Such an approach to find useful modulators as described herein may be taken with synthetic peptide or membranes containing endogenous or overexpressed mitoNEET.

- labeling of mitoNEET by crosslinking (mitoNEET [1]): labeling of the mitoNEET
- labeling of mitoNEET by crosslinking (mitoNEET [2]; newly prepared crude rat liver mitochondria, UV crosslinking, carrier-free probe 0.1-0.2 μCi/tube): labeling of the mitoNEET
Molecule: [N-]=[N+]=Nc1cc(O)c(C(=O)NCCNC(=O)Cc2ccc(CCOc3ccc(CC4SC(=O)NC4=O)cc3)nc2)cc1[125I] (stereo not shown)

Molecule: O=C(O)Cc1ccc(CCOc2ccc(CC3SC(=O)NC3=O)cc2)nc1 (stereo not shown) [[6-(2-{4-[(2,4-dioxo-1,3-thiazolidin-5-yl)methyl]phenoxy}ethyl)pyridin-3-yl]acetic acid]
- 125I-crosslinked mitoNEET peak (HPLC) in presence of competitor (mitoNEET [2]; competitor 25 μM final concentration, HPLC with in-line gamma detector, fraction 31, identical results with bovine brain fractions): lacked this peak; also recorded: not present

B1: synthetic mitoNEET: Full-length mitoNEET polypeptide made by peptide synthesis (peptide, UniProt Q9NZ45 1-108, looked up)
chain: MSLTSSSSVRVEWIAAVTIAAGTAAIGYLAYKRFYVKDHRNKAMINLHIQKDNPKIVHAFDMEDLGDKAVYCRCWRSKKFPFCDGAHTKHNEETGDNVGPLIIKKKET
modifications: full-length chemically synthesized
notes: Full-length mitoNEET polypeptide made by peptide synthesis
- effect on fatty acid oxidation (remaining palmitoyl CoA) (fatty acid oxidation): inhibits fatty acid oxidation
